Patent publication US11214803B2, “Modulators of YAP1 expression” (Ionis Pharmaceuticals, Inc., priority 2019, dated 2022)
pIC50: −log10 of the molar value. “And” between values parts separate entries of the source, which are not always exact repeats. Identical values can stand only once. Strand notation (5' to 3'): a small letter for the sugar, then the base; units joined by * are phosphorothioate-linked, units joined directly phosphodiester-linked; [ ] holds rarer units or linkages, { } end groups; capitals alone tell only the bases. k = constrained ethyl (cEt); [5mC] = 5-methylcytosine; d = 2'-deoxy (DNA)

Experiments:
[1] = test system: Yap1 mRNA; assay: Dose-dependent inhibition of human Yap1 in SNU-449 cells (Example 9, RTS36584); type: cell-based; settings: free uptake; for % UTC (Yap1 mRNA): approximately 48 hours; for pIC50: linear regression on a log/linear plot
How it was run: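 SNU-449 cells (10,000/well) took up modified oligonucleotides by free uptake at a range of doses for about 48 h. Yap1 mRNA was quantified with primer-probe set RTS36584, normalised to RIBOGREEN total RNA and expressed as % untreated control; IC50 from linear regression on log/linear plot.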

[2] = test system: Yap1 mRNA; assay: Inhibition of human Yap1 mRNA in epidermoid carcinoma A-431 xenograft tumors (Example 27); type: in vivo; settings: A-431 xenografts in NCr-Foxn1nu mice, 6-8 hours post final dose, relative to PBS
Experimental: An epidermoid carcinoma A-431 xenograft tumor model was used to evaluate activity of modified oligonucleotides targeted to human Yap1. Five million A-431 cells in 30% matrigel were implanted subcutaneously into the flanks of female NCr-Foxn1nu mice (from Taconic) at 4-6 weeks of age. When tumors reached an average volume of 40 mm^3, approximately two weeks post-implantation, groups of four mice each were administered at either 25 mg/kg or 50 mg/kg daily with modified oligonucleotides for […] (5 doses). Tumors were collected 6-8 hours post final dose and tested for Yap1 mRNA knockdown by RT-qPCR. Yap1 mRNA levels were measured as previously described using the Human Yap1 primer-probe set RTS4814. Yap1 mRNA levels were normalized to actin-beta content, as measured by primer probe set RTS5002. Results are presented in the tables below as percent control of the amount of Yap1 mRNA relative to PBS treated animals (% control).

[3] = Cynomolgus monkey tolerability, hematology (Example 34); type: in vivo, cynomolgus monkeys; settings: for BAS / EOS / HCT / HGB / LUC / LYM / MCH / MCHC / MCV / MON / NEU / PLT / RBC / RCDW / Retic / WBC: cynomolgus monkey, in vivo, sc, 35 mg/kg; for MPV: cynomolgus monkeys, 35 mg/kg subcutaneously, day 44
Experimental: To evaluate any effect of Ionis oligonucleotides in cynomolgus monkeys on hematologic parameters, blood samples of approximately 0.5 mL of blood was collected from each of the available study animals on day 44. The samples were collected in tubes containing K2-EDTA. Samples were analyzed for red blood cell (RBC) count, Hemoglobin (HGB), Hematocrit (HCT), Mean corpuscular volume (MCV), mean corpuscular hemoglobin (MCH), mean corpuscular hemoglobin concentration (MCHC), RBC Distribution Width (RCDW), reticulocyte count (Retic), platelet count (PLT), mean platelet volume (MPV), white blood cells (WBC) count, individual white blood cell counts, such as that of monocytes (MON), neutrophils (NEU), lymphocytes (LYM), eosinophils (EOS), basophils (BAS), and large unstained cells (LUC) using an ADVIA2120i hematology analyzer (Siemens, USA).

[4] = test system: Yap1 mRNA; assay: Inhibition of human Yap1 mRNA in squamous cell carcinoma CAL27 xenograft tumors (Example 28); type: in vivo; settings: CAL27 xenografts in NCr-Foxn1nu mice, relative to PBS treated
Experimental: A squamous cell carcinoma CAL27 xenograft tumor model was used to evaluate activity of modified oligonucleotides targeted to human Yap1. Five million CAL27 cells in 30% matrigel were implanted subcutaneously into the flanks of female CrTac:NCr-Foxn1nu mice (from Taconic) at 4-6 weeks of age. Groups of four mice each were administered with either 15 mg/kg or 30 mg/kg of modified oligonucleotides daily for five days after tumor size had reached ˜100 mm^3 (about 3 weeks post implantation). Tumors were collected and tested for Yap1 mRNA knockdown by RT-qPCR. Yap1 mRNA levels were measured as previously described using the Human Yap1 primer-probe set RTS4814. Yap1 mRNA levels were normalized to actin-beta content, as measured by primer probe set RTS5002. Results are presented in the tables below as percent control of the amount of Yap1 mRNA relative to PBS treated […].

[5] = cynomolgus monkey, in vivo, sc, 35 mg/kg
Experimental: Prior to the study, the monkeys were kept in quarantine during which the animals were observed daily for general health. The monkeys were 2-4 years old and weighed 2-4 kg. Eleven groups of 4 randomly assigned male cynomolgus monkeys each were injected subcutaneously with Ionis oligonucleotide or saline in a clock-wise rotation between four different sites on the back. Following loading doses on days 1, 3, 5 and 7, the monkeys were dosed once per week (on days 14, 21, 28, 35, and 42) with 35 mg/kg of Ionis oligonucleotide.
To evaluate the effect of Ionis oligonucleotides on hepatic and kidney function, blood samples were collected from all the study groups on day 44. The monkeys were fasted overnight prior to blood collection. Blood was collected in tubes without anticoagulant for serum separation. The tubes were kept at room temperature for a minimum of 90 minutes and then centrifuged at 3000 rpm for 10 minutes to obtain serum. Levels of various liver function markers were measured using a Toshiba 200FR NEO chemistry analyzer (Toshiba Co., Japan).

[6] = test system: SCC25 cells; assay: Cell proliferation assay in SCC25 cells, CellTiter-Glo (Example 25); type: cell-based, human; settings: free uptake, 144 hours
Experimental: Modified oligonucleotides described in the studies above were tested at various doses in squamous cell carcinoma cell SCC25. A control oligonucleotide 792169 (a 3-10-3 cET gapmer with a full phosphorothioate backbone, […], designated herein as SEQ ID No.: 2940; is not complementary to any known human gene) was also tested.
Cultured SCC25 cells at a density of 1,000 cells/well were treated using free uptake with modified oligonucleotides diluted to concentrations described in the tables below. After approximately 144 hours, cell proliferation was measured using the luminescent cell viability CellTiter-Glo® 2.0 Assay (Promega). Results are presented in the tables below as percent control of the amount of luminescence in samples treated with modified oligonucleotides relative to untreated control cells (% UTC).

Row | Substance | % UTC (Yap1 mRNA) ([1]; 125.0 nM) | pIC50 [1] | Yap1 mRNA in tumors, % control ([2]; 25 mpk daily (5 doses)) [% control] | Yap1 mRNA in tumors, % control ([2]; 50 mpk daily (5 doses)) [% control] | BAS [3] [%] | EOS [3] [%] | HCT [3] [%] | HGB [3] [g/dL] | LUC [3] [%] | LYM [3] [%] | MCH [3] [pg] | MCHC [3] [g/dL] | MCV [3] [fL] | MON [3] [%] | NEU [3] [%] | PLT [3] | cell proliferation (luminescence) % UTC ([6]; 0.04 μM) [% UTC] | cell proliferation (luminescence) % UTC ([6]; 0.2 μM) [% UTC] | cell proliferation (luminescence) % UTC ([6]; 1 μM) [% UTC] | cell proliferation (luminescence) % UTC ([6]; 5 μM) [% UTC] | other results
1 | 715487 (kA*kT*kT*dA*d[5mC]*dT*dT*d[5mC]*dA*dT*dA*dG*d[5mC]*kT*kT*kA) [compound 715487] | 47 % UTC and 44 % UTC and 56 % UTC and 53 % UTC and 73 % UTC and 70 % UTC and 62 % UTC and 48 % UTC | 6.40 and 6.52 and 6.70 | 61 | 57 | – | – | – | – | – | – | – | – | – | – | – | – | – | – | – | – | –
2 | 1198439 (AGTGTATGTCAGAAGA; sugar, 5-methylcytosine, phosphorothioate modifications, further chemistry not given here) [compound 1198439] | 21 % UTC | > 7.52 | 37 | 19 | 0.3 | 1.5 | 48 | 14 | 0.6 | 68 | 22 | 28 | 79 | 2.9 | 27 | 367 10^3/μL | 62 | 30 | 22 | 16 | RBC [3]: 6e+06 µL⁻¹; RCDW [3]: 12%; Retic [3]: 1.2%; WBC [3]: 10300 µL⁻¹; MPV [3]: 7.6 fL; Yap1 mRNA in tumors, % UTC ([4]; 15 mg/kg daily for five days): 66 % UTC; Yap1 mRNA in tumors, % UTC ([4]; 30 mg/kg daily for five days): 38 % UTC; % UTC (Yap1 mRNA) ([1]; 31.3 nM): 44 % UTC; % UTC (Yap1 mRNA) ([1]; 500.0 nM): 5 % UTC; % UTC (Yap1 mRNA) ([1]; 2000.00 nM): 2 % UTC; A/G ratio [5]: 1.4
3 | 1076453 (GTAATATTGCAATCTG; 3-10-3 cEt gapmer, further chemistry not given here) [compound 1076453] | 29 % UTC | 7.00 | 55 | 25 | 0.4 | 1.1 | 43 | 13 | 1.2 | 54 | 23 | 29 | 79 | 3.9 | 39 | 358 10^3/μL | 81 | 40 | 23 | 15 | RBC [3]: 5.5e+06 µL⁻¹; RCDW [3]: 15%; Retic [3]: 1.2%; WBC [3]: 10000 µL⁻¹; MPV [3]: 8.4 fL; Yap1 mRNA in tumors, % UTC ([4]; 15 mg/kg daily for five days): 69 % UTC; Yap1 mRNA in tumors, % UTC ([4]; 30 mg/kg daily for five days): 46 % UTC; % UTC (Yap1 mRNA) ([1]; 31.3 nM): 67 % UTC; % UTC (Yap1 mRNA) ([1]; 500.0 nM): 8 % UTC; % UTC (Yap1 mRNA) ([1]; 2000.00 nM): 1 % UTC; A/G ratio [5]: 1.3
4 | 1198440 (AAGTGTATGTCAGAAG; cEt, 2'-MOE, 5-methylcytosine, phosphorothioate modifications, further chemistry not given here) [compound 1198440] | 23 % UTC | > 7.52 | 32 | 21 | 0.4 | 2.8 | 47 | 14 | 0.7 | 65 | 23 | 29 | 80 | 3.2 | 28 | 420 10^3/μL | 73 | 33 | 22 | 16 | RBC [3]: 5.9e+06 µL⁻¹; RCDW [3]: 12%; Retic [3]: 1.2%; WBC [3]: 10900 µL⁻¹; MPV [3]: 7.5 fL; Yap1 mRNA in tumors, % UTC ([4]; 15 mg/kg daily for five days): 67 % UTC; Yap1 mRNA in tumors, % UTC ([4]; 30 mg/kg daily for five days): 41 % UTC; % UTC (Yap1 mRNA) ([1]; 31.3 nM): 55 % UTC; % UTC (Yap1 mRNA) ([1]; 500.0 nM): 6 % UTC; % UTC (Yap1 mRNA) ([1]; 2000.00 nM): 2 % UTC; A/G ratio [5]: 1.4
5 | CGCCGATAAGGTACAC (cEt gapmer, phosphorothioate backbone, further chemistry not given here) [ION 792169, reference compound] | – | – | – | – | – | – | – | – | – | – | – | – | – | – | – | – | 103 | 104 | 100 | 88 | –
